Reference: patent EP4361137A1, “PRUNE1 INHIBITORS AND THERAPEUTIC USE THEREOF” (CEINGE Biotecnologie Avanzate Franco Salvatore s.c. a r.l., priority 2022, dated 2024)
“And” between values parts separate entries of the source, which are not always exact repeats. Equal entries are not always repeated. “Also recorded” adds a separate entry of the source.

What was measured:
MATH1-Prune1/ TP53-/- = experiment: Orthotopic implantation of MATH1-Prune1/TP53-/- cells in immunocompetent syngeneic mice, tumor growth; format: in vivo, FVB WT mice; settings: AA7.1 at 30 mg/kg/day or 60 mg/kg/day intraperitoneally
Description: MATH1-Prune1/ TP53-/- were implanted into the right cerebellar hemisphere of female (n.10) immunocompetent syngeneic mice model (5 weeks old, strain: FVB WT) to establish intracerebellar MATH1-Prune1/ TP53-/- models. Mice were anaesthetised with Ketamine/ Xylazine (87.5 mg/kg, 12.5 mg/kg, respectively). The mice were then placed in a stereotactic frame by hooking their incisors onto the frame hold. A small skin incision (length, 1 mm) and a burr hole (diameter, 0.7 mm) were created using a microsurgical drill (Fine Science Tools, Foster City, CA, USA of MATH1-Prune1/ TP53-/- (1.5 ×10^5) were resuspended in 10 µL PBS and injected slowly through the burr hole into the right cerebellar hemisphere (stereotactic coordinates from Bregma: anteroposterior, 5.5 mm; right lateral, 2.1 mm; dorsoventral 5.0 mm), with a steady force over 30 s, using a 10-AL, 26-gauge Hamilton Gastight model 1701RN syringe needle (SigmaAldrich) that was inserted perpendicular to the cranial surface. The incision was sutured using Safil polyglycolic acid synthetic absorbable suture (6/0). The mice were kept on a warming blanket after the surgery, to help them to maintain their body temperature. Their mobility and respiratory patterns were observed continuously, and once the mice had recovered from the anaesthesia; they were place in a sterile housing cage. The mice were monitored daily for development of potential neurological deficits. 10 days after the implantation of the cells, the mice were imaged, and tumour growth was evaluated by bioluminescence acquisition using an imaging system (IVIS 3D Illumina; Xenogen/ Caliper). For the acquisitions, the mice were anaesthetised by inhalational of isoflurane, and the D-luciferin (122799; PerkinElmer) (15 mg/mL stock) was injected intraperitoneally (100 µL per 10 g body weight). At 5 min from the luciferin injection, the mice were imaged for 3 min. To quantify the bioluminescence, the integrated fluxes of photons (p/s) within each area of interest were determined using the Living Images Software Package 3.2 (Xenogen-Perkin Elmer). […] After 17 days from tumour implantation (i.e., after one weeks of LEO-AA7.5(S)T treatment), the mice were sacrificed, and the organs were collected for immunohistochemistry and immunofluorescence analyses.
Paraffin sections of the tumor specimens (thickness, 3 µm) were deparaffinised and rehydrated by immersing the slides in Xylene Substitute (A5597; Sigma), as three washes for 5 min each, then serially in 100%, 95%, 70%, 50%, and 30% ethanol (two washes for 10 min, for each), and deionised water (two washes, for 5 min each). The washes were then followed by PBS, PBS containing 0.02% Triton-X 100 (215680010; Acros Organics), and PBS (two washes for 5 min, for each). For antigen retrieval, the slides were immersed in boiling 10 mM sodium citrate buffer (pH 6.0) using a microwave oven, and then maintained at sub-boiling temperature for 10 min. The slides were left to cool at room temperature for 30 min. The sections were then washed by immersion in distilled water for 5 min. To block endogenous peroxidase activity, the tissue sections were placed in a solution with 3.0% hydrogen peroxide in methanol for 15 min. Then, to decrease the nonspecific background fluorescence, the tissues were digested by treating them with a solution containing 0.2% trypsin (T2600000; Sigma-Aldrich) and 0.001% CaCl2 for 10 min at 37 °C, in a humidified chamber. The slides were then washed in PBS, PBS containing 0.02% Triton-X 100 (215680010; Acros Organics), and PBS (two washes for 5 min, for each). The tissue sections were blocked with 6% bovine serum albumin (A9418; Sigma), 5% fetal bovine serum (ECS0180L; Euroclone), and 20 mM MgCl2 in PBS containing 0.02% Triton-X 100, for 1 h at room temperature, and incubated overnight with the primary antibodies at 4 °C in a humidified chamber. […]

D425-MED cells [1] = settings: Ferrucci et al., 2018, read-out: IC50 reported for AA7.1 in the same D425-Med cells; cited from earlier work
[2] = 15, 30, and 60 mg/kg intraperitoneally daily for 1 week; Ferrucci et al.; cited from earlier work
Caspase 3 = Caspase 3 activity assay; format: cell-based, murine; settings: MATH1-Prune1/TP53-/- cells; Vincristine 0.3 nM and 0.03 nM; LEO-AA7.5(S)T 10 µM; 24 hours
Description: MATH1-Prune1/TP53-/- cells (3×10^4) were plated in 96-well plate and treated with different doses of Vincristine (i.e., 0.3 nM or 0.03 nM) alone or combined to 10 µM LEO-AA7.5(S)T. Vehicle- (0.01% DMSO) treated cells were used as negative controls. Staurosporine-treated cells (1 µM) were used as positive controls of the assays. The assay was performed by using Caspase-3 Activity Assay Kit (#5723, Cell Signaling), by following the manufacture's instruction. Briefly, after 24 hours from the treatment started, cell medium was removed and 30 ul of cell lysis buffer (PI-7018, Cell Signaling) were added. The plate was then incubated for 5 minutes on ice. Later, 25 ul of cell lysate were mixed with 200 ul substrate solution B (#11734S, Cell Signaling) in a black 96 well plate. Fluorescence was detected by using a multimode plate reader (Enspire, 2300, PerkinElmer). The positive control AMC (25 µl, #11735S, Cell Signaling) mixed with 200 ul 1X assay buffer A (#11736S, Cell Signaling) was used as positive control of fluorescence.

[3] = test system: MATH1-Prune1/TP53-/- cells; experiment: Real-time cell proliferation assay (cell index, xCELLigence); format: cell-based, murine; settings: impedance every 2 min over 24 h
Description: Primary murine TNBC cells from tumors generated by MMTV-Prune1/Wnt1 mice [Ferrucci et al., 2021] and Primary murine Medulloblastoma Group 3 cells from tumors generated MATH-Prune1/TP53-/- mice were obtained (2 months from tumor onset).
(§1) Cellular proliferation rates were determined with the xCELLigence system (Roche). D425-MED, MATH-Prune1/TP53-/- and MMTV-Prune1/Wnt1 cells (8 × 10^3) were treated with increasing concentrations of LEO-AA7.5(S)T, harvested, and then added to a single well of an xCELLigence E-plate 16. The proliferation rates were determined at 2-min intervals by measuring the impedance changes across the electrodes at the bottoms of the wells. These cell index values were calculated by the xCELLigence RTCA software. with vehicle-treated cells were the negative control. Impedance was measured every 2 min over 24 hours. The IC50 values were calculated through nonlinear regression analysis performed with Graph Pad Prism 9 ([inhibitor] vs. response (three parameters). Data are means ± SD of three independent experiments.

D425-MED cells [4] = experiment: as above; format: cell-based, human; settings: combination with Vincristine
Description: J774A.1 murine macrophages (referred to as J774 cells; ATCC: #TIB-67), MMTV-Prune1-Wnt1 cells were grown in high-glucose Dulbecco's modified Eagle's medium (DMEM; Euroclone) supplemented with 20% (v/v) FBS, 2 mM L-glutamine, and 1% (v/v) antibiotics (Pen/Strep). D425-MED, D425-MED-Luc and […] cells were grown in high-glucose Dulbecco's modified Eagle's medium (DMEM; Euroclone) and Iscove's Modified Dulbecco's Medium (IMDM; Sigma) at 1:1 (v/v) dilution supplemented with 20% (v/v) FBS, 2 mM L-glutamine, 1% non-essential amino acid solution (M7145; Sigma-Aldrich/Merck), and 1% (v/v) antibiotics (Pen/Strep). The cells were grown at 37 °C in a humidified atmosphere of 95% air, 5% CO2 (v/v).
D425.MED and MMTV-Prune1/Wnt1 cells were plated and treated with increasing concentrations of LEO-AA7.5(S)T for 24 hours. Water-treated cells were used as negative control for the experiments.
as §1

COc1ccc(CNc2ccnc(N3CC[C@@H](O)C3)n2)cc1 [AA7.1, (R)-1-(4-((4-methoxybenzyl)amino)pyrimidin-2-yl)pyrrolidin-3-ol, reference compound]
MB progression / tumour growth in cerebellum (bioluminescence) (MATH1-Prune1/ TP53-/-): inhibit MB progression; also recorded: impairment of tumour growth | IC50 (D425-MED cells [1]): 130 ± 52.1 µM | acute toxicity (hematological parameters, hepatotoxicity, nephrotoxicity) [2]: no immediate acute toxicity

CC[C@]1(O)C[C@H]2CN(CCc3c([nH]c4ccccc34)[C@@](C(=O)OC)(c3cc4c(cc3OC)N(C=O)[C@H]3[C@@](O)(C(=O)OC)[C@H](OC(C)=O)[C@]5(CC)C=CCN6CC[C@]43[C@@H]65)C2)C1 [Vincristine]
Caspase 3 activation, single agent (Caspase 3): activation of Caspase 3 | half maximal inhibitory concentration (IC50) for the inhibition of cell proliferation index [3]: 35 µM and 19,6 µM

COc1ccc(CNc2ncnc(N3CCCC(CO)C3)n2)cc1 (stereo not drawn) [compound (I)]
dose of the chemotherapeutics diminished by synergistic action with Vincristine (D425-MED cells [4]): more than 100 fold
